Drawing on patent US20070021509A1, “Phosphate transport inhibitors” (priority 2001, published 2007), this text covers IC50 for 13 compounds.

The structures appear in SMILES notation. Where only a bound is given, the exact number is not on record here.

This assay concerns glucose transport (rabbit intestinal BBMV). Put plainly: In vitro BBMV assay, glucose transport inhibiting activity. In kind it is biochemical. As to conditions: Table 14. How it is done: In the remaining wells, used for compound containing reactions, are placed MAX Control Buffer. The Hot Stock Plate was stored at room temperature. To each well of an appropriate 96-well filter plate was added approximately 200 μL Stop Buffer to pre-wet the filters for at least 15 minutes prior to assay. The “Compound Plate” was set-up by loading appropriate wells of a 96-well, polypropylene, V-bottom plate with compound solutions. This could be for testing inhibition at a single “screening” concentration, or to measure the potency of compounds by dose-response analysis at the appropriate concentrations. A “BBMV Plate” was set up by loading a 96-well, polypropylene, V-bottom plate with BBMVs at 0.5-2.0 mg/mL (prepared as described above). The BBMV Plate was kept on ice until just prior to the assay. The reaction was initiated by aspiration of the hot uptake buffers (19 uL), from the Hot Stock Plate, and the compound solutions (2 uL), from the Compound Plate, dispensing into an empty 96-well V-bottom plate (Assay Plate), then immediately aspirating the BBMVs (19 μL), from the BBMV Plate and dispensing into the same Assay Plate. The addition of the BBMVs to the assay plate marked the reaction start time. After 15 minutes, the reaction was quenched by addition of 200 μL of STOP buffer from a reservoir. The Stop Buffer was aspirated by vacuum from the wells, through the filters, of the pre-soaked filter plate using a filter plate manifold. The quenched reactions were aspirated and transferred to the filter plate under vacuum. The filters were washed 2 times with 200 μL STOP buffer under vacuum. The filter plate was removed, dried, and the bottom of the filter plate was sealed. To each well of the filter plate was added 50 μL of scintillant (Microscint-20). A top seal was then applied to the filter plate. The plate was incubated for approximately 20 minutes before reading for ^33P CPM on a scintillation counter (i.e., TopCount-Packard Instruments). Percent inhibition was calculated by comparing the CPM values from compound containing wells to the MAX and MIN controls on the same plate using the following formula. 1−((CPM−MIN)/(MAX−MIN)) IC50 values were calculated from non-linear regression analysis within an appropriate software package (i.e., Prism GraphPad).
The phosphate transport inhibitors indicated in Table 14 were tested in both an in vitro and an ex vivo assay to determine their activity. The in vitro assay is identical to the assay described in Example 66, with the exception that the glucose transport inhibiting activity of the compounds was also measured. Results are reported as the IC50 value for the various types of inhibition. A preferred compound will have high phosphate transport inhibiting activity, but little or no glucose transport inhibiting activity.
For the compound `Cn1nc(C(C)(C)C)cc1C(=O)Nc1ccc(C(F)(F)F)cc1` [Example 84, 5-tert-Butyl-2-methyl-2H-pyrazole-3-carboxylic acid (4-trifluoromethyl-phenyl)-amide], 99 µM corresponded to half-maximal inhibition (IC50). The figure for `O=C(Nc1cccc(C(F)(F)F)c1)Nc1cc(Cl)ccc1Cl` [Example 85, 1-(2,5-Dichloro-phenyl)-3-(3-trifluoromethyl-phenyl)-urea] is > 100 µM. The figure for `O=C(Nc1cccc(C(F)(F)F)c1)Nc1ccc(F)c([N+](=O)[O-])c1` [Example 86, 1-(4-Fluoro-3-nitro-phenyl)-3-(3-trifluoromethyl-phenyl)-urea] is 34 µM.

The compound `Cl.N=C(Nc1ccc(Cl)c(C(F)(F)F)c1)Nc1ccc(Cl)c(C(F)(F)F)c1` [Example 89, N,N′-Bis-(4-chloro-3-trifluoromethyl-phenyl)-guanidine Hydrochloride] gave a half-maximal inhibitory concentration (IC50) of 88 µM. The value for `COc1ccccc1CNC(=O)c1cc(Br)ccc1NS(=O)(=O)c1ccc(OC(F)(F)F)cc1` [Example 70, 5-Bromo-N-(2-methoxy-benzyl)-2-(4-trifluoromethoxy-benzenesulfonylamino)-benzamide] was > 100 µM; that for `Cl.N=C(Nc1ccc(Br)c(C(F)(F)F)c1)Nc1ccc(Br)c(C(F)(F)F)c1` [Example 87, N,N′-Bis-(4-bromo-3-trifluoromethyl-phenyl)-guanidine Hydrochloride] was 94 µM; that for `O=C(Nc1cccc(C(F)(F)F)c1)Nc1cccc(C(F)(F)F)c1` [Example 82, 1,3Bis(3-Trifluoromethylphenyl)urea] was 54 µM. The value for `O=C(NCc1ccc(F)cc1)c1cc(Br)ccc1NS(=O)(=O)c1ccc(OC(F)(F)F)cc1` [Example 71, 5-Bromo-N-(4-fluoro-benzyl)-2-(4-trifluoromethoxy-benzenesulfonylamino)-benzamide] was > 100 µM; that for `O=C(NCc1ccc(OC(F)(F)F)cc1O)c1cc(Br)ccc1NS(=O)(=O)c1ccc(OC(F)(F)F)cc1` [Example 75, 5-Bromo-N-(2-hydroxy-4-trifluoromethoxy-benzyl)-2-(4-trifluoromethoxy-benzenesulfonylamino)-benzamide] was 80 µM.

In turn, `Cl.N=C(Nc1cc(C(F)(F)F)cc(C(F)(F)F)c1)Nc1cc(C(F)(F)F)cc(C(F)(F)F)c1` [Example 88, N,N′-Bis-(3,5-bis-trifluoromethyl-phenyl)-guanidine Hydrochloride] returned an IC50 of 63 µM. The value for `Cl.N=C(Nc1ccc(C(F)(F)F)c(C(F)(F)F)c1)Nc1ccc(C(F)(F)F)c(C(F)(F)F)c1` [Example 90, N,N′-Bis-(3,4-bis-trifluoromethyl-phenyl)-guanidine Hydrochloride] was > 100 µM. `O=C(Nc1cc(C(F)(F)F)cc(C(F)(F)F)c1)NC1CCCCC1` [Example 83, 1-Cyclohexyl-3-(3,5-Bistrifluoromethyl-phenyl)-urea] yielded a half-inhibitory concentration (IC50) of 82 µM. The figure for `COc1ccc(F)cc1CNC(=O)c1cc(Br)ccc1NS(=O)(=O)c1ccc(OC(F)(F)F)cc1` [Example 78, 5-Bromo-N-(5-fluoro-2-methoxy-benzyl)-2-(4-trifluoromethoxy-benzenesulfonylamino)-benzamide] is 100 µM.
